Laboratory results from ChEMBL document CHEMBL3217700, “Synthesis and SAR studies of benzimidazole derivatives as melanin concentrating hormone receptor 1 (MCHR1) antagonists: Focus to detune hERG inhibition” (Medchemcomm, 2011).
pIC50: −log10 of the molar value.

Experiments:
[1] = organism: Homo sapiens; experiment: Selectivity ratio of IC50 for human ERG to IC50 for MCHR1 (unknown origin) assessed as IP3 levels by cell-based functional assay
[2] = molecular target: T1, Melanin-concentrating hormone receptor 1 (Homo sapiens, UniProt Q99705); experiment: Displacement of [125I]MCH from human recombinant MCHR1 expressed CHO-K1 cell membrane by SPA-YSI assay; type: cell membranes
T1 sequence (Q99705 whole entry): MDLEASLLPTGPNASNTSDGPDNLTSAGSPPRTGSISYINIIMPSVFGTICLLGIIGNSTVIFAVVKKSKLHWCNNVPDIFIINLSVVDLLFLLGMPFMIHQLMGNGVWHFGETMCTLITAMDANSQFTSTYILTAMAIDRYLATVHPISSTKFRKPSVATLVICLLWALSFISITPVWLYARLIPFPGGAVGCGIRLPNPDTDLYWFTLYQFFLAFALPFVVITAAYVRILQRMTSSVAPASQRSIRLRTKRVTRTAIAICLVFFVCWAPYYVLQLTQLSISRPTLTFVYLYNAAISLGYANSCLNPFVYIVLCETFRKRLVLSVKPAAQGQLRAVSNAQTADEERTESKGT

[3] = molecular target: T1, Melanin-concentrating hormone receptor 1; experiment: Antagonist activity at MCHR1 (unknown origin) assessed as IP3 levels by cell-based functional assay
[4] = molecular target: Voltage-gated inwardly rectifying potassium channel KCNH2 (Homo sapiens, UniProt Q12809); experiment: Inhibition of human ERG expressed in HEK293 cells after 5 mins by patch clamp assay; type: cell-based
Sequence of Voltage-gated inwardly rectifying potassium channel KCNH2 (Q12809 whole entry): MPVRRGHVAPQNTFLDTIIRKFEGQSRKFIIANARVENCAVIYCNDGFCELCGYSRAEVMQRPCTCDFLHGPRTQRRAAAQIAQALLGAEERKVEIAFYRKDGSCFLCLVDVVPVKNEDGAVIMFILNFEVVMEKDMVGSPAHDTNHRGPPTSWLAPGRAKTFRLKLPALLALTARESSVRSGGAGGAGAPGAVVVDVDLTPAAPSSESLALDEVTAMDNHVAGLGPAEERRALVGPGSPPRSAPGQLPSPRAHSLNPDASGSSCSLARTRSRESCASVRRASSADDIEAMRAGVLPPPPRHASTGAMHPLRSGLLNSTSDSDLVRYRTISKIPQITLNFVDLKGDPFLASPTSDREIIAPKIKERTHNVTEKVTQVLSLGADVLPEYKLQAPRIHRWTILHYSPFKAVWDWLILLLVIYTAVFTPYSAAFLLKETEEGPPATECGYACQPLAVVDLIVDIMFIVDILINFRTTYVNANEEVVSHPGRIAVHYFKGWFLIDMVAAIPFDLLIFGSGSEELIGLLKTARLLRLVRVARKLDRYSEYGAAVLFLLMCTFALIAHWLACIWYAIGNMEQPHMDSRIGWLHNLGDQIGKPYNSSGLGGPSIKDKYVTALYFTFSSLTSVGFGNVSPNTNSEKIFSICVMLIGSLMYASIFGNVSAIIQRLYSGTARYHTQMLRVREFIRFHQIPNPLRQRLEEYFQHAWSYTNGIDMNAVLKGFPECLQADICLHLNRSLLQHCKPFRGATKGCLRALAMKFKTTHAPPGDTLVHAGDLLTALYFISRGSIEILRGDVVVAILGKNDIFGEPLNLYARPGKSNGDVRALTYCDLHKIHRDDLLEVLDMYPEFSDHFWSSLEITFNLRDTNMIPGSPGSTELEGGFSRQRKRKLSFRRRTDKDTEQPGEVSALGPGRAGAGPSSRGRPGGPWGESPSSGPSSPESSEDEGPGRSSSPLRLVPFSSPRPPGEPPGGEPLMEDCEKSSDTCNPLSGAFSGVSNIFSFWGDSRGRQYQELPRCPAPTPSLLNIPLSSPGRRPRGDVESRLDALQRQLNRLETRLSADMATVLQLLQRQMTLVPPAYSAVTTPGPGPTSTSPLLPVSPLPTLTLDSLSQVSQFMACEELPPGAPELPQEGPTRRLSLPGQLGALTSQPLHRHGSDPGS

[5] = molecular target: hERG (KCNH2) (Homo sapiens, UniProt Q12809); experiment: Inhibition of human ERG expressed in HEK293 cells at 1 uM after 5 mins by patch clamp assay; type: cell-based; settings: HEK293 cells that express hERG
Sequence of hERG (KCNH2) (Q12809 whole entry): as above

| Compound | Ratio IC50 [1] | pIC50 [2] | pIC50 [3] | pIC50 [4] | inhibition at 5 min, 1 µM [5] [%] |
| --- | --- | --- | --- | --- | --- |
| CC(=O)Nc1cccc(C2CCN(Cc3ccc(C(=O)c4nc5ccccc5n4C4CCOCC4)cc3)CC2)c1 | 24 | 7.26 | 7.33 | 5.92 | – |
| CC(=O)Nc1cccc(C2CCN(Cc3ccc(C(=O)c4nc5ccccc5n4-c4ccc(F)cc4)cc3Cl)CC2)c1 | – | 6.74 | 6.47 | – | – |
| CC(=O)Nc1cccc(C2CCN(CCCNc3nc4ccccc4n3-c3ccc(F)cc3)CC2)c1 | 3 | – | – | – | – |
| CC(=O)Nc1cccc(C2CCN(Cc3ccc(C(=O)c4nc5ccccc5n4-c4ccc(F)cc4)cc3F)CC2)c1 | – | 7.34 | 7.10 | – | – |
| CC(=O)Nc1cccc(C2CCN(Cc3ccc(C(=O)c4nc5ccccc5n4C(C)C)cc3)CC2)c1 | – | 6.86 | 6.88 | – | – |
| CC(=O)Nc1cccc(C2CCN(Cc3ccc(C(=O)c4nc5ccccc5n4-c4ccc(Cl)cc4)cc3)CC2)c1 | 26 | 7.47 | 6.66 | 5.77 | – |
| CC(=O)Nc1cccc(C2CCN(Cc3ccc(C(=O)c4nc5ccccc5n4-c4ccc(F)cc4)cc3)CC2)c1 | – | 7.96 | 7.82 | – | – |
| CC(=O)Nc1cccc(C2CCN(C(C)c3ccc(C(=O)c4nc5ccccc5n4-c4ccc(F)cc4)cc3)CC2)c1 (stereo unspecified) | – | 6.82 | 6.59 | – | – |
| CC(=O)Nc1cccc(C2CCN(Cc3ccc(Cc4nc5ccccc5n4-c4ccc(F)cc4)cc3C#N)CC2)c1 | 131 | 8.00 | 8.52 | – | 42 |
| CC(=O)Nc1cccc(C2CCN(Cc3ccc(C(=O)c4nc5ccccc5n4C)cc3)CC2)c1 | – | 6.54 | 6.09 | – | – |
| CC(=O)Nc1cccc(C2CCN(Cc3ccc(C(=O)c4nc5ccccc5n4C4CC4)cc3)CC2)c1 | – | 6.57 | 6.39 | – | – |
| CC(=O)Nc1cccc(C2CCN(Cc3ccc(C(=O)c4nc(C)c(C)n4-c4ccc(F)cc4)cc3)CC2)c1 | 18 | 7.66 | 7.02 | 5.77 | – |
| CC(=O)Nc1cccc(C2CCN(Cc3ccc(C(=O)c4nc5ccccc5n4-c4ccc(F)cc4)cn3)CC2)c1 | – | 7.57 | 7.18 | – | 27 |
| CC(=O)Nc1cccc(C2CCN(Cc3ccc(C(=O)c4nc5c(F)cc(F)cc5n4-c4ccc(F)cc4)cc3)CC2)c1 | – | 7.82 | 7.37 | – | 70 |
| CC(=O)Nc1cccc(C2CCN(Cc3ccc(C(=O)c4nc5ccccc5n4-c4ccc(F)cc4)cc3C#N)CC2)c1 | – | 6.19 | 6.41 | – | – |
| CC(=O)Nc1cccc(C2CCN(Cc3ccc(C(=O)c4nc5ccccc5n4-c4ccc(F)cc4)nc3)CC2)c1 | – | 7.96 | 7.43 | – | 37 |
| CC(=O)Nc1cccc(C2CCN(Cc3ccc(C(=O)c4nc5ccccc5n4-c4ccc(C#N)cc4)cc3)CC2)c1 | – | 6.76 | 6.59 | – | – |
| CC(=O)Nc1cccc(C2CCN(Cc3ccc(C(=O)c4nc5cccnc5n4-c4ccc(F)cc4)cc3)CC2)c1 | – | 7.85 | 7.28 | – | 58 |
| CC(=O)Nc1cccc(C2CCN(CCCCc3nc4ccccc4n3-c3ccc(F)cc3)CC2)c1 | 10 | – | – | – | – |
| CC(=O)Nc1cccc(C2CCN(Cc3ccc(C(=O)c4nc5ccccc5n4-c4ccc(F)cc4)cc3C(F)(F)F)CC2)c1 | – | 5.49 | < 5.00 | – | – |
| CC(=O)Nc1cccc(C2CCN(Cc3ccc(C(=O)c4nc5ccccc5n4-c4ccc(C(F)(F)F)cc4)cc3)CC2)c1 | – | 6.00 | 5.86 | – | – |
| CC(=O)Nc1cccc(C2CCN(Cc3ccc(C(=O)c4nc5cnccc5n4-c4ccc(F)cc4)cc3)CC2)c1 | – | 7.92 | 7.23 | – | 36 |
| CC(=O)Nc1cccc(C2CCN(Cc3ccc(Oc4nc5ccccc5n4-c4ccc(F)cc4)cc3)CC2)c1 | – | 8.10 | 7.28 | – | 80 |
| CC(=O)Nc1cccc(C2CCN(Cc3ccc(Cc4nc5ccccc5n4-c4ccc(F)cc4)cc3)CC2)c1 | – | 9.05 | 8.52 | – | 98 |
